Consider six cell lines from the supplement of paper PMC10307832.

What all share (experiment): relative viability (nuclei count vs DMSO), 5 days (fraction); higher = more cells survive
Compound in the test “BAY61-3606 + Luminespib”: COC1=C(C=C(C=C1)C2=CC3=NC=CN3C(=N2)NC4=C(C=CC=N4)C(=O)N)OC [BAY61-3606] + CCNC(=O)c1noc(-c2cc(C(C)C)c(O)cc2O)c1-c1ccc(CN2CCOCC2)cc1 [Luminespib] (partner 0.01 µM)
The procedure, abridged: (§1)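 Each reported value is a median over duplicate plates. It expresses relative viability: treated-well nuclei count divided by vehicle-well nuclei count. Lung cancer cell lines in 1536-well plates were dosed by pin tool a day after seeding, alone with one drug or with a fixed anchor-drug dose plus five library-drug doses (not always all listed) in √10 steps, and nuclei were counted after 5 days.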

Compound in the test “BAY61-3606 + Decitabine”: COC1=C(C=C(C=C1)C2=CC3=NC=CN3C(=N2)NC4=C(C=CC=N4)C(=O)N)OC [BAY61-3606] + Nc1ncn([C@H]2C[C@H](O)[C@@H](CO)O2)c(=O)n1 [Decitabine] (partner 2 µM)
The method in brief:
as §1

Compound in the test “BAY61-3606 + Phenformin”: COC1=C(C=C(C=C1)C2=CC3=NC=CN3C(=N2)NC4=C(C=CC=N4)C(=O)N)OC [BAY61-3606] + N=C(N)NC(=N)NCCc1ccccc1 [Phenformin] (partner 250 µM)
The procedure, abridged: as §1

Compound in the test “Doxorubicin + Linsitinib”: COc1cccc2c1C(=O)c1c(O)c3c(c(O)c1C2=O)C[C@@](O)(C(=O)CO)C[C@@H]3O[C@H]1C[C@H](N)[C@H](O)[C@H](C)O1 [Doxorubicin] + C[C@]1(O)C[C@@H](c2nc(-c3ccc4ccc(-c5ccccc5)nc4c3)c3c(N)nccn32)C1 [Linsitinib] (partner 1 µM)
The method in brief:
as §1

Take NCI-H520: the relative viability with BAY61-3606 + Luminespib (first compound 0.02 µM) was 0.216; in the test with BAY61-3606 + Luminespib (first compound 0.06325 µM), 0.237; with BAY61-3606 + Luminespib (first compound 0.2 µM), 0.258; with BAY61-3606 + Luminespib (first compound 0.6325 µM), 0.231; with BAY61-3606 + Luminespib (first compound 2 µM), 0.223; in the test with BAY61-3606 + Decitabine (first compound 0.02 µM), 0.508. Besides, the relative viability turned out to be 0.67 with BAY61-3606 + Decitabine (first compound 0.06325 µM); 0.515 with BAY61-3606 + Decitabine (first compound 0.2 µM); 0.518 with BAY61-3606 + Decitabine (first compound 0.6325 µM); 0.557 in the test with BAY61-3606 + Decitabine (first compound 2 µM); 0.552 with BAY61-3606 + Phenformin (first compound 0.02 µM); 0.446 with BAY61-3606 + Phenformin (first compound 0.06325 µM). In addition, the relative viability with BAY61-3606 + Phenformin (first compound 0.2 µM) was determined as 0.659; in the test with BAY61-3606 + Phenformin (first compound 0.6325 µM), 0.67; with BAY61-3606 + Phenformin (first compound 2 µM), 0.51; with Doxorubicin + Linsitinib (first compound 0.001 µM), 0.888; with Doxorubicin + Linsitinib (first compound 0.003162 µM) it was 0.986; with Doxorubicin + Linsitinib (first compound 0.01 µM), 0.826. Also, the relative viability in the test with Doxorubicin + Linsitinib (first compound 0.03162 µM) was determined as 0.698; with Doxorubicin + Linsitinib (first compound 0.1 µM), 0.73.

Regarding NCI-H358, the relative viability turned out to be 0.428 in the test with BAY61-3606 + Luminespib (first compound 0.02 µM); 0.249 in the test with BAY61-3606 + Luminespib (first compound 0.06325 µM); 0.322 in the test with BAY61-3606 + Luminespib (first compound 0.2 µM); 0.289 in the test with BAY61-3606 + Luminespib (first compound 0.6325 µM); 0.205 with BAY61-3606 + Luminespib (first compound 2 µM); 0.226 with BAY61-3606 + Decitabine (first compound 0.02 µM). Besides, the relative viability amounted to 0.228 with BAY61-3606 + Decitabine (first compound 0.06325 µM); 0.241 with BAY61-3606 + Decitabine (first compound 0.2 µM); 0.228 in the test with BAY61-3606 + Decitabine (first compound 0.6325 µM); 0.14 with BAY61-3606 + Decitabine (first compound 2 µM); 0.371 in the test with BAY61-3606 + Phenformin (first compound 0.02 µM); 0.32 with BAY61-3606 + Phenformin (first compound 0.06325 µM). Besides, the relative viability in the test with BAY61-3606 + Phenformin (first compound 0.2 µM) stood at 0.351; with BAY61-3606 + Phenformin (first compound 0.6325 µM), 0.244; with BAY61-3606 + Phenformin (first compound 2 µM), 0.158; with Doxorubicin + Linsitinib (first compound 0.001 µM) it was 0.756; with Doxorubicin + Linsitinib (first compound 0.003162 µM), 0.896; with Doxorubicin + Linsitinib (first compound 0.01 µM) it was 0.529. Moreover, the relative viability in the test with Doxorubicin + Linsitinib (first compound 0.03162 µM) worked out at 0.215; in the test with Doxorubicin + Linsitinib (first compound 0.1 µM), 0.176.

As for NCI-H1395, the relative viability with BAY61-3606 + Luminespib (first compound 0.02 µM) is 0.849; with BAY61-3606 + Luminespib (first compound 0.06325 µM), 0.595; with BAY61-3606 + Luminespib (first compound 0.2 µM) it was 0.733; in the test with BAY61-3606 + Luminespib (first compound 0.6325 µM) it was 0.568; in the test with BAY61-3606 + Luminespib (first compound 2 µM), 0.546; with BAY61-3606 + Decitabine (first compound 0.02 µM), 0.824. Besides, the relative viability amounted to 0.709 with BAY61-3606 + Decitabine (first compound 0.06325 µM); 0.799 with BAY61-3606 + Decitabine (first compound 0.2 µM); 0.661 in the test with BAY61-3606 + Decitabine (first compound 0.6325 µM); 0.686 with BAY61-3606 + Decitabine (first compound 2 µM); 0.459 in the test with BAY61-3606 + Phenformin (first compound 0.02 µM); 0.371 with BAY61-3606 + Phenformin (first compound 0.06325 µM). The relative viability with BAY61-3606 + Phenformin (first compound 0.2 µM) worked out at 0.444; with BAY61-3606 + Phenformin (first compound 0.6325 µM) it was 0.469; with BAY61-3606 + Phenformin (first compound 2 µM) it was 0.414; with Doxorubicin + Linsitinib (first compound 0.001 µM) it was 1.03; in the test with Doxorubicin + Linsitinib (first compound 0.003162 µM) it was 1.09; with Doxorubicin + Linsitinib (first compound 0.01 µM), 1.02. For the same cell line, the relative viability in the test with Doxorubicin + Linsitinib (first compound 0.03162 µM) stood at 1.11; with Doxorubicin + Linsitinib (first compound 0.1 µM), 0.92.

As to LC-2-ad, the relative viability stood at 1.2 with BAY61-3606 + Luminespib (first compound 0.02 µM); 0.98 in the test with BAY61-3606 + Luminespib (first compound 0.06325 µM); 1.1 with BAY61-3606 + Luminespib (first compound 0.2 µM); 0.963 in the test with BAY61-3606 + Luminespib (first compound 0.6325 µM); 0.646 with BAY61-3606 + Luminespib (first compound 2 µM); 0.849 in the test with BAY61-3606 + Decitabine (first compound 0.02 µM). In addition, the relative viability with BAY61-3606 + Decitabine (first compound 0.06325 µM) is 0.772; in the test with BAY61-3606 + Decitabine (first compound 0.2 µM) it was 0.775; in the test with BAY61-3606 + Decitabine (first compound 0.6325 µM) it was 0.778; with BAY61-3606 + Decitabine (first compound 2 µM), 0.92; with BAY61-3606 + Phenformin (first compound 0.02 µM) it was 0.613; in the test with BAY61-3606 + Phenformin (first compound 0.06325 µM) it was 0.539. Besides, the relative viability was 0.592 in the test with BAY61-3606 + Phenformin (first compound 0.2 µM); 0.6 with BAY61-3606 + Phenformin (first compound 0.6325 µM); 0.563 with BAY61-3606 + Phenformin (first compound 2 µM); 0.879 with Doxorubicin + Linsitinib (first compound 0.001 µM); 0.803 in the test with Doxorubicin + Linsitinib (first compound 0.003162 µM); 0.902 with Doxorubicin + Linsitinib (first compound 0.01 µM). The relative viability with Doxorubicin + Linsitinib (first compound 0.03162 µM) is 0.763; in the test with Doxorubicin + Linsitinib (first compound 0.1 µM), 0.791.

As to SK-MES-1, the relative viability with BAY61-3606 + Luminespib (first compound 0.02 µM) was 0.862; with BAY61-3606 + Luminespib (first compound 0.06325 µM) it was 0.759; in the test with BAY61-3606 + Luminespib (first compound 0.2 µM), 0.791; with BAY61-3606 + Luminespib (first compound 0.6325 µM), 0.805; with BAY61-3606 + Luminespib (first compound 2 µM) it was 0.304; with BAY61-3606 + Decitabine (first compound 0.02 µM) it was 0.37. For the same cell line, the relative viability with BAY61-3606 + Decitabine (first compound 0.06325 µM) turned out to be 0.342; with BAY61-3606 + Decitabine (first compound 0.2 µM), 0.377; with BAY61-3606 + Decitabine (first compound 0.6325 µM) it was 0.382; with BAY61-3606 + Decitabine (first compound 2 µM) it was 0.348; with BAY61-3606 + Phenformin (first compound 0.02 µM) it was 0.729; with BAY61-3606 + Phenformin (first compound 0.06325 µM) it was 0.586. Moreover, the relative viability was 0.633 with BAY61-3606 + Phenformin (first compound 0.2 µM); 0.685 in the test with BAY61-3606 + Phenformin (first compound 0.6325 µM); 0.57 with BAY61-3606 + Phenformin (first compound 2 µM); 0.952 with Doxorubicin + Linsitinib (first compound 0.001 µM); 1.07 with Doxorubicin + Linsitinib (first compound 0.003162 µM); 1.07 with Doxorubicin + Linsitinib (first compound 0.01 µM). Moreover, the relative viability with Doxorubicin + Linsitinib (first compound 0.03162 µM) is 1.05; in the test with Doxorubicin + Linsitinib (first compound 0.1 µM), 0.936.

For the cell line SW 1573, the relative viability with BAY61-3606 + Luminespib (first compound 0.02 µM) turned out to be 0.192; with BAY61-3606 + Luminespib (first compound 0.06325 µM) it was 0.204; with BAY61-3606 + Luminespib (first compound 0.2 µM), 0.197; with BAY61-3606 + Luminespib (first compound 0.6325 µM), 0.214; in the test with BAY61-3606 + Luminespib (first compound 2 µM), 0.204; with BAY61-3606 + Decitabine (first compound 0.02 µM), 0.526. In addition, the relative viability stood at 0.553 in the test with BAY61-3606 + Decitabine (first compound 0.06325 µM); 0.467 with BAY61-3606 + Decitabine (first compound 0.2 µM); 0.511 with BAY61-3606 + Decitabine (first compound 0.6325 µM); 0.325 with BAY61-3606 + Decitabine (first compound 2 µM); 0.288 with BAY61-3606 + Phenformin (first compound 0.02 µM); 0.336 with BAY61-3606 + Phenformin (first compound 0.06325 µM). The relative viability in the test with BAY61-3606 + Phenformin (first compound 0.2 µM) amounted to 0.342; with BAY61-3606 + Phenformin (first compound 0.6325 µM) it was 0.328; in the test with BAY61-3606 + Phenformin (first compound 2 µM), 0.166; with Doxorubicin + Linsitinib (first compound 0.001 µM), 0.669; with Doxorubicin + Linsitinib (first compound 0.003162 µM) it was 0.831; with Doxorubicin + Linsitinib (first compound 0.01 µM) it was 0.858. Moreover, the relative viability with Doxorubicin + Linsitinib (first compound 0.03162 µM) came to 0.586; in the test with Doxorubicin + Linsitinib (first compound 0.1 µM) it was 0.529.
